Results taken from patent US6462205B1, “Method of preparing benzofurandione oxime derivatives” (Bayer Aktiengesellscahft, priority 1999, dated 2002).
Like-named read-outs stand apart in the source and are kept apart here.

Assay: log p of the isomers of 3-methoximino-2-oxo-2,3-dihydrobenzofuran
Type: physicochemical
Conditions: product of Example 5, value per isomer

SMILES	logP (read-out: log p)	logP
CON=C1C(=O)Oc2ccccc21 (single isomer, unassigned; isomer 3) [E isomer, 3-Methoximino-2-oxo-2,3-dihydrobenzofuran]	2.2	–
CON=C1C(=O)Oc2ccccc21 (single isomer, unassigned; isomer 3) [Z isomer, 3-Methoximino-2-oxo-2,3-dihydrobenzofuran]	–	2.14
